Consider 16 compounds from ChEMBL document CHEMBL1135190, “A comparison of the binding of three series of nicotinic ligands” (Bioorg Med Chem Lett, 2002).

As a reminder, the pKi is the Ki on a negative log10 scale, so that one unit is a factor of ten.

This assay addresses Neuronal acetylcholine receptor. In words: Binding affinity towards nicotinic acetylcholine receptor using [3H]nicotine as radioligand in rat brain homogenates. Type of assay: tissue-based.

pKi: −log10 of the molar value.

Compound `CN1CCCC1c1cncc(F)c1` (stereo unspecified) had a negative logarithm of the Ki (pKi) of 8.99.

Regarding `CN1CCCC1c1cnc2cc3ccncc3cc2c1` (stereo unspecified), the negative logarithm of the Ki (pKi) is 7.95. The compound `CCN(C)CCOc1ccc(Br)nc1` gave a pKi of 6.54. Compared with the last compound, the pKi is 1.41 log units lower. `CCN(C)CCOc1cccnc1` gave a negative-log Ki (pKi) of 7.66. In the case of `CCN(C)Cc1cnc2cc3ccncc3cc2c1`, the pKi is 5.95. Against the preceding compound, the pKi is 1.71 log units lower.

As for `CN1CCCC1c1cncc(Cl)c1` (stereo unspecified), the pKi was 9.20. `CCN(C)CCOc1cncc(OC)c1` gave a pKi of 7.80. `c1ccc2ncc(C3CCCN3)cc2c1` (stereo unspecified): the negative logarithm of the Ki (pKi) was 7.03.

Compound `CCN(C)Cc1cnccc1F` had a negative-log Ki (pKi) of 7.03.

For `CCN(C)Cc1cncc(OC)c1`, the negative-log Ki (pKi) was 6.94. To `CCN(C)Cc1ccc(Br)nc1` belongs 7.21; to `CCN(C)Cc1ccc(C)nc1`, 7.18. To `CCN(C)CCOc1ccc(OC)nc1` belongs 5.39. With `CN1CCCC1c1ccc(Br)nc1` (stereo unspecified), the pKi was 9.35. Against the preceding compound, the pKi is 3.96 log units higher.

Regarding `CCN(C)CCOc1cncc(Br)c1`, the pKi was 6.35. With `CCN(C)Cc1cnccc1Cl` the figure was 7.39.
